We go through two compounds from patent US20240393694A1, “METAL CONTAINING PHOTORESIST DEVELOPER COMPOSITION, AND METHOD OF FORMING PATTERNS INCLUDING STEP OF DEVELOPING USING THE COMPOSITION” (SAMSUNG SDI CO., LTD., priority 2023, published 2024).

The term pKa denotes the negative logarithm of the acid dissociation constant.

The nature of the data set: pKa of the sulfonimide-based compound (Table 1).

As to `O=C1CCC(=O)N1` [Succimide], the pKa amounted to 9.5.
Under `O=C1NC(=O)c2ccccc21` [Phthalimide] stands 8.3.
